From patent US7495018B2, “Substituted 1,3-thiazole compounds, their production and use” (Takeda Pharmaceutical Company Limited, priority 2000, dated 2009)

Row | SMILES | melting point [°C]
1 | Cc1cccc(-c2nc(CCc3ccccc3)sc2-c2ccnc(C)c2)c1 [Example Compound 14-8, 4-(3-methylphenyl)-5-(2-methyl-4-pyridyl)-2-(2-phenylethyl)-1,3-thiazole] | 64 to 65
2 | Cc1cccc(-c2nc(-c3ccc(S(C)(=O)=O)cc3)sc2-c2ccnc(N3CCOCC3)c2)c1 [Example Compound 36-8, 4-(3-methylphenyl)-2-(4-methylsulfonylphenyl)-5-(2-morpholino-4-pyridyl)-1,3-thiazole] | 200 to 202
3 | CNc1nc(-c2cccc(C)c2)c(-c2ccnc(NC3CCCC3)c2)s1 [Example Compound 36-3, N-methyl-[5-(2-cyclopentylamino-4-pyridyl)-4-(3-methylphenyl)-1,3-thiazol-2-yl]amine] | 170 to 172
4 | CC(=O)Nc1cc(-c2sc(C(C)=O)nc2-c2cccc(Cl)c2)ccn1 [Example 112, N-[4-[2-acetyl-4-(3-chlorophenyl)-1,3-thiazol-5-yl]-2-pyridyl]acetamide] | 180 to 183
5 | Cc1cccc(-c2nc(-c3ccc(S(C)(=O)=O)cc3)sc2N2C=CC=CC2N2CCCCC2)c1 (stereo not drawn) [Example Compound 35-2, 4-(3-methylphenyl)-2-(4-methylsulfonylphenyl)-5-(2-piperidino-1-pyridyl)-1,3-thiazole] | 155 to 157
6 | Cc1cc(C)cc(-c2nc(NC(=O)c3ccc(Cl)nc3)sc2-c2ccnc(C)c2)c1 [Example Compound 44-3, 6-chloro-N-[4-(3,5-dimethylphenyl)-5-(2-methyl-4-pyridyl)-1,3-thiazol-2-yl]nicotinamide] | 271 to 273
7 | Cc1cccc(-c2nc(-c3ccc(F)cc3)sc2-c2ccnc(C)c2)c1 [Example Compound 14-4, 2-(4-fluorophenyl)-4-(3-methylphenyl)-5-(2-methyl-4-pyridyl)-1,3-thiazole] | 89 to 91
8 | COc1ccc(C(=O)Nc2nc(-c3cccc(C)c3)c(-c3ccnc(NC4CCCCC4)c3)s2)cn1 [Example Compound 48-1, N-[5-(2-cyclohexylamino-4-pyridyl)-4-(3-methylphenyl)-1,3-thiazol-2-yl]-6-methoxynicotinamide] | 191 to 192
9 | CSc1ccc(-c2nc(-c3cccc(Cl)c3)c(-c3ccnc(NC(=O)C(C)(C)C)c3)s2)cc1 [Example Compound 30-12, N-[4-[4-(3-chlorophenyl)-2-[4-(methylthio)phenyl]-1,3-thiazol-5-yl]-2-pyridyl]pivalamide] | 119 to 120
10 | CCCC(=O)Nc1cc(-c2sc(CC)nc2-c2cccc(Cl)c2)ccn1 [Example 86, N-[4-[4-(3-chlorophenyl)-2-ethyl-1,3-thiazol-5-yl]-2-pyridyl]butyramide] | 119 to 120
11 | CCC(=O)Nc1cc(-c2sc(CC)nc2-c2ccc(F)cc2)ccn1 [Example 84-2, N-[4-[2-ethyl-4-(4-fluorophenyl)-1,3-thiazol-5-yl]-2-pyridyl]propionamide] | 156 to 157
12 | CCCc1nc(-c2cccc(Cl)c2)c(-c2ccnc(NC(=O)CC)c2)s1 [Example Compound 30-9, N-[4-[4-(3-chlorophenyl)-2-propyl-1,3-thiazol-5-yl]-2-pyridyl]propionamide] | 103 to 104
13 | CSc1ccc(-c2nc(-c3cccc(C)c3)c(-c3ccnc(C)c3)s2)cc1 [Example Compound 16-1, 4-(3-methylphenyl)-5-(2-methyl-4-pyridyl)-2-[4-(methylthio)phenyl]-1,3-thiazole] | 119 to 122
14 | Cc1cccc(-c2nc(N)sc2-c2ccnc(NC3CCCCC3)c2)c1 [Example Compound 34-2, [5-(2-cyclohexylamino-4-pyridyl)-4-(3-methylphenyl)-1,3-thiazol-2-yl]amine] | 168 to 169
15 | CCc1nc(-c2cccc(C)c2)c(-c2ccnc(NC(=O)OC(C)(C)C)c2)s1 [Example 3, 5-[2-(tert-butoxycarbonylamino)-4-pyridyl]-2-ethyl-4-(3-methylphenyl)-1,3-thiazole] | 162 to 163
16 | Cc1cccc(-c2nc(NC(=O)Nc3ccccc3)sc2-c2ccnc(NC3CCCCC3)c2)c1 [Example Compound 53-2, N-[5-(2-cyclohexylamino-4-pyridyl)-4-(3-methylphenyl)-1,3-thiazol-2-yl]-N′-phenylurea] | 198 to 199
17 | CCC(=O)Nc1cc(-c2sc(CSC)nc2-c2cccc(Cl)c2)ccn1 [Example 102-3, N-[4-[4-(3-chlorophenyl)-2-(methylthio)methyl-1,3-thiazol-5-yl]-2-pyridyl]propionamide] | 118 to 119
18 | Cc1cccc(-c2nc(N)sc2-c2ccnc(C)c2)c1 [Example Compound 7-4, [4-(3-methylphenyl)-5-(2-methyl-4-pyridyl)-1,3-thiazol-2-yl]amine] | 205 to 206
19 | CCc1nc(-c2ccc(F)c(C)c2)c(-c2ccnc(NC(C)=O)c2)s1 [Example 82-4, N-[4-[2-ethyl-4-(4-fluoro-3-methylphenyl)-1,3-thiazol-5-yl]-2-pyridyl]acetamide] | 142 to 143
20 | CCc1nc(-c2cccc(C(F)(F)F)c2)c(-c2ccnc(N)c2)s1 [Example Compound 20-4, 4-[2-ethyl-4-[3-(trifluoromethyl)phenyl]-1,3-thiazol-5-yl]-2-pyridylamine] | 117 to 118
21 | CCC(=O)Nc1cc(-c2sc(-c3ccc(S(C)(=O)=O)cc3)nc2-c2cccc(C)c2)ccn1 [Example 98-2, N-[4-[4-(3-methylphenyl)-2-(4-methylsulfonylphenyl)-1,3-thiazol-5-yl]-2-pyridyl]propionamide] | 238 to 239
22 | Cc1cccc(-c2nc(-c3ccc(S(C)(=O)=O)cc3)sc2-c2ccnc(N(C)C3CCCCC3)c2)c1 [Example Compound 37-2, N-cyclohexyl-N-methyl-4-[4-(3-methylphenyl)-2-(4-methylsulfonylphenyl)-1,3-thiazol-5-yl]-2-pyridylamine] | 173 to 174
23 | Cc1cc(-c2sc(-c3ccc(S(C)(=O)=O)cc3)nc2-c2ccc(F)cc2)ccn1 [Example Compound 58-5, 4-(4-fluorophenyl)-5-(2-methyl-4-pyridyl)-2-(4-methylsulfonylphenyl)-1,3-thiazole] | 190 to 192
24 | CSCc1nc(-c2cccc(C)c2)c(-c2ccnc(N)c2)s1 [Example 113-1, 4-[4-(3-methylphenyl)-2-(methylthio)methyl-1,3-thiazol-5-yl]-2-pyridylamine] | 113 to 114
25 | Cc1cccc(-c2nc(-c3ccccc3)sc2-c2ccnc(C)c2)c1 [Example Compound 14-6, 4-(3-methylphenyl)-5-(2-methyl-4-pyridyl)-2-phenyl-1,3-thiazole] | 79 to 80
26 | CCc1nc(-c2ccc(Cl)cc2)c(-c2ccnc(NC(C)=O)c2)s1 [Example 82-6, N-[4-[4-(4-chlorophenyl)-2-ethyl-1,3-thiazol-5-yl]-2-pyridyl]acetamide] | 190 to 191

Further lines, results first:

Row | melting point [°C] | SMILES
27 | 82 to 84 | Cc1cccc(-c2nc(Cc3ccccc3)sc2-c2ccnc(C)c2)c1 [Example Compound 14-7, 4-(3-methylphenyl)-5-(2-methyl-4-pyridyl)-2-(phenylmethyl)-1,3-thiazole]
28 | 102 to 103 | CCc1nc(-c2cccc(Cl)c2)c(-c2ccnc(F)c2)s1 [Example Compound 12, 2-ethyl-4-(3-chlorophenyl)-5-(2-fluoro-4-pyridyl)-1,3-thiazole]
29 | 154 to 155 | CCOC(=O)Cc1nc(-c2cccc(Cl)c2)c(-c2ccnc(N)c2)s1 [Example Compound 21-2, Ethyl [5-(2-amino-4-pyridyl)-4-(3-chlorophenyl)-1,3-thiazol-2-yl]acetate]
30 | 203 to 206 | Cc1cc(C)cc(-c2nc(NC(=O)c3cccnc3)sc2-c2ccnc(C)c2)c1 [Example Compound 42-1, N-[4-(3,5-dimethylphenyl)-5-(2-methyl-4-pyridyl)-1,3-thiazol-2-yl]nicotinamide]
31 | 156 to 158 | Cc1cccc(-c2nc(NC(=O)OCCCl)sc2-c2ccnc(C)c2)c1 [Example Compound 62, 2-chloroethyl[4-(3-methylphenyl)-5-(2-methyl-4-pyridyl)-1,3-thiazol-2-yl]carbamate]
32 | 124 to 125 | CCCc1cccc(-c2nc(CC)sc2-c2ccnc(NC(=O)CC)c2)c1 [Example 84-8, N-[4-[2-ethyl-4-(3-propylphenyl)-1,3-thiazol-5-yl]-2-pyridyl]propionamide]
33 | 122 to 123 | CC(C)(C)C(=O)Nc1cc(-c2sc(-c3ccc(S(C)(=O)=O)cc3)nc2-c2cccc(Cl)c2)ccn1 [Example Compound 58-8, N-[4-[4-(3-chlorophenyl)-2-(4-methylsulfonylphenyl)-1,3-thiazol-5-yl]-2-pyridyl]pivalamide]
34 | 216 to 217 | CC(=O)Nc1cc(-c2sc(-c3ccc(S(C)(=O)=O)cc3)nc2-c2cccc(Cl)c2)ccn1 [Example Compound 58-6, N-[4-[4-(3-chlorophenyl)-2-(4-methylsulfonylphenyl)-1,3-thiazol-5-yl]-2-pyridyl]acetamide]
35 | 110 to 111 | CCc1nc(-c2cccc(Cl)c2)c(-c2ccnc(NC3CCCC3)c2)s1 [Example Compound 36-11, 4-[4-(3-chlorophenyl)-2-ethyl-1,3-thiazol-5-yl]-N-cyclopentyl-2-pyridylamine]
36 | 140 to 141 | CCc1nc(-c2ccc(F)cc2)c(-c2ccnc(N)c2)s1 [Example Compound 20-3, 4-[2-ethyl-4-(4-fluorophenyl)-1,3-thiazol-5-yl]-2-pyridylamine]
37 | 169 to 170 | COc1ncccc1C(=O)Nc1nc(-c2cccc(C)c2)c(-c2ccnc(C)c2)s1 [Example Compound 49, 2-methoxy-N-[4-(3-methylphenyl)-5-(2-methyl-4-pyridyl)-1,3-thiazol-2-yl]nicotinamide]
38 | 132 to 134 | CCc1nc(-c2cccc(Br)c2)c(-c2ccnc(N)c2)s1 [Example Compound 75-2, 4-[4-(3-bromophenyl)-2-ethyl-1,3-thiazol-5-yl]-2-pyridylamine]
39 | 93 to 94 | CCC(=O)Nc1cc(-c2sc(CC)nc2-c2cccc(C(C)C)c2)ccn1 [Example 84-7, N-[4-[2-ethyl-4-[3-(1-methylethyl)phenyl]-1,3-thiazol-5-yl]-2-pyridyl]propionamide]
